SMILES strings stand for the structures.

Data set [1] is described as follows: PK analysis after i.v. administration in mice. It is filed as in vivo.
In data set [2] the test system is murine peritoneal macrophages (PEC). Briefly: Dose-response of M1 and M2 gene expression in PEC (RT PCR). In kind it is cell-based, mice. The conditions noted are these: PECs treated 4 hours or 20 hours with increased concentrations. Here is the method:
A third group of experiments was performed to investigate the dose-response effects of TMX, its potency as compared to classical inflammatory signals (e.g. LPS) and the activation of selected transcription factors playing an established role in tolerance, as well as in the induction of M1/M2 polarized inflammatory programs. PECs treated for 4 hours or 20 hours with 100 ng/mlof LPS or increased concentrations of TMX or 1V209 were analyzed by RT PCR for the expression of representative M1 (TNFα, IL-12p40) and M2 (IL-10, TGFβ) genes. […] In this experiment, as compared to 1V209, TMX is a lower inducer of M1 genes expression.
Cell Culture and treatments. Peritoneal exudate cells (PEC) were harvested from mice injected with 1 ml of 3% (w/v) thioglycollate medium (Difco, Detroit, Mich.) 4 days prior to isolation. PECs were incubated in RPMI 1640 medium, containing 10% fetal bovine serum, 2 mM glutamine and 100 U/ml of penicillin-streptomycin. The concentration for the different treatments were as follows: LPS (100 ng/ml) (Lipopolysaccharide from Salmonella Abortus Equi S-form, Alexis), CpG (1 μg/ml), Pam3CSK (2 μg/ml), Poly I:C (10 μg/ml), Loxorubine (100 μM), flagellin (100 ng/ml) IL-1β (20 ng/ml), TNF (20 ng/ml), IL-10 (20 ng/ml) (Peprotech), IFNγ (200 U/ml) (Peprotech). To induce TMX tolerance, cells were incubated in the presence of TMX (10 μM or 1 μM) for 20 hrs, washed and maintained in RPMI medium for 2 hrs and then re-challenged with TMX (10 μM) for 4 hrs. To induce TMX-tolerization (T/M) cells were treated with TMX for 20 hrs, washed and then maintained in medium for additional 6 hours, without TMX re-challenge. To induce M1-activation, cells were incubated in medium for 20 hrs, washed, left in medium for 2 hrs and finally stimulated with TMX (10 μM) for 4 hrs. Control cells (M/M) were cultured in medium for the entire period of the experiment. For gene expression analysis, total RNA was extracted from TMX treated and untreated cells with trizol (Invitrogen), according to the manufacturer's instructions. To analyze cytokines and chemokines production supernatants were collected 24 hrs after the second challenge with TMX.
Real-Time PCR. Total RNA was purified as previously described. Briefly, reverse transcription from 1 μg of RNA was performed using cDNA Archive kit (Applied Biosystem, NJ, USA). Real time PCR was performed using Power Syber Green PCR Master Mix (Applied Biosystem, NJ, USA) and detected by 7900HT Fast Real-Time System (Applied Biosystem, NJ, USA). Data were processed using the SDS2.2.2 software (Applied Biosystem, NJ, USA). Results were normalized to the expression of the housekeeping gene β-actin and then expressed as folds of upregulation, with respect to the control cell population.

For a further data set, the system named is human monocytes (Mo). Briefly: M1/M2 gene expression in human monocytes (Real-Time PCR). In kind it is cell-based. The conditions noted are these: excluding Mo from one healthy donor. On the procedure: To evaluate the effects of TMX on human cell activation, monocytes were isolated from buffy coats obtained from four different healthy donors. With respect to macrophage tolerance, cells were treated with Compound 2 (10 microM) up to 20 hours and then re-challenged with agonists/ligands of different TLRs (TLR2, TLR4, TLR5, TLR9, TLR7, etc. . . . ), including the TLR7 unconjugated ligand 1V209 (free pharmacophore) at a concentration of 10 microM.
Cell Culture and treatments. Monocytes (Mo) were obtained from buffycoats collected from healthy donors as previously described (Porta C et al, PNAS 2009). Cells were incubated in RPMI 1640 medium, containing 10% fetal bovine serum, 2 mM glutamine and 100 U/ml of penicillin-streptomycin. The concentrations for the different treatments were as follows: LPS (100 ng/ml) (Lipopolysaccharide from Salmonella Abortus Equi S-form, Alexis), CpG (1 microg/ml), Pam3CSK (2 microg/ml), Poly I:C (10 microg/ml), Loxorubine (100 microM), flagellin (100 ng/ml). To induce TMX tolerance, cells were incubated in the presence of TMX (10 microM) for 20 hrs, washed and maintained in RPMI medium for 2 hrs and then re-challenged with TMX (10 microM) for 4 hrs. To induce TMX-tolerization (T/M) cells were treated with TMX for 20 hrs, washed and then maintained in medium for additional 6 hours, without TMX re-challenge. To induce M1-activation cells were incubated in medium for 20 hrs, washed, left in medium for 2 hrs and finally stimulated with TMX (10 microM) for 4 hrs. Control cells (M/M) were cultured in medium for the entire period of the experiment. For gene expression analysis, total RNA was extracted from TMX treated and untreated cells with trizol (Invitrogen), according to the manufacturer's instructions. To analyze cytokines and chemokines production supernatants were collected 24 hrs after the second challenge with TMX.
Real-Time PCR. Total RNA was purified as previously described. Briefly, reverse transcription from 1 microgram of RNA was performed using a cDNA Archive kit (Applied Biosystem, NJ, USA). Real time PCR was performed using Power Syber Green PCR Master Mix (Applied Biosystem, NJ, USA) and detected by 7900HT Fast Real-Time System (Applied Biosystem, NJ, USA). Data were processed using the SDS2.2.2 software (Applied Biosystem, NJ, USA). Results were normalized to the expression of the housekeeping gene 8-actin and then expressed as folds of upregulation, with respect to the control cell population.
For orientation: In qPCR the cycle at which signal appears reflects the starting amount.

Data set [3] can be described thus: Dissolution in suitable solvents for testing. It is filed as physicochemical.

As for `COCCOc1nc(N)c2nc(O)n(Cc3ccc(C(=O)NCCOCCOCCOCCOCCOCCOCCOCCOCCOCCOCCn4cc(CCC(=O)O)nn4)cc3)c2n1` [Compound 6, 3-(1-(1-(4-((6-amino-8-hydroxy-2-(2-methoxyethoxy)-9H-purin-9-yl)methyl)phenyl)-1-oxo-5,8,11,14,17,20,23,26,29,32-decaoxa-2-azatetratriacontan-34-yl)-1H-1,2,3-triazol-4-yl)propanoic acid], in data set [1], the “AUC in comparison with Compound 3” value is on record as “lower”, the “Cmax in comparison with Compound 3” value is given as “lower”, the “clearance in comparison with Compound 3” value was “higher” and the “half life in comparison with Compound 3” value is “longer”.
In the case of `COCCOc1nc(N)c2[nH]c(=O)n(Cc3ccc(C(=O)O)cc3)c2n1` [Compound 1V209, 4-((6-amino-2-(2-methoxyethoxy)-8-oxo-7H-purin-9(8H)-yl)methyl)benzoic acid, reference compound], the “induction of both M1 and M2 gene expression” value in data set [2] is “dose-dependent induction”. Further, in the data set with human monocytes (Mo), the “potency as compared to Compound 2 in terms of induction of both M1 and M2 gene expression” value is recorded as “higher potency”.
As for `CCCCCCCC/C=C\CCCCCCCC(=O)OCC(COP(=O)(O)OCCNC(=O)c1ccc(Cn2c(=O)[nH]c3c(N)nc(OCCOC)nc32)cc1)OC(=O)CCCCCCC/C=C\CCCCCCCC` (stereo not shown) [compound (6), 2-(4-((6-amino-2-(2-methoxyethoxy)-8-oxo-7H-purin-9(8H)-yl)methyl)benzamido)ethyl 2,3-bis(oleoyloxy)propyl phosphate], the “dissolution in suitable solvents for testing” value in data set [3] is “difficulty in dissolution”.

These data come from patent US20120083473A1, “TREATMENT OF CONDITIONS BY TOLL-LIKE RECEPTOR MODULATORS” (priority 2010, published 2012).
